The record followed here is US10987429B2, “Inhibitor of ATP-dependent cellular reverse transporters and method for producing same” (AO “TATKHIMFARMPREPARATY”, priority 2016, dated 2021).

Structures can show the parent of a compound that is named as a salt.

Common to all, as to type: cell-based, human
In one assay the test system is MCF-7 cells. The assay can be described thus: Microviscosity of plasma membranes, DPHT fluorescence polarization. As to conditions: OEP inhibitor 8.7, 87, 870 μg/ml, doxorubicin 1 μM, cholesterol 100 μg/ml, Triton X-100 0.05%, 1 hour. An excerpt:
(§1) A key physico-chemical characteristic of cell membranes that affects their physiological activity is microviscosity, a measure of lipid mobility in the bilayer, which plays an important role in membrane permeability and the functioning of membrane proteins. To assess the plasmalemma microviscosity, a fluorescent method is used, based on the use of a lipophilic indicator of diphenylhexatriene (DPHT), whose fluorescence depends on the cell membrane fluidity.
(§2) Cell suspension with a density of 2×10^6 cells/ml was incubated with DPHT at a final concentration of 1 μM for 30 minutes. Next, aliquots (10 μl) of OEP inhibitor solutions were added to the cell suspension using a multichannel dispenser to a final concentration of 8.7; 87 and 870 μg/ml, as well as doxorubicin at a concentration of 1 μM and its composition with an OEP inhibitor (DOX 1 μM+OEP inhibitor 8.7 μg/ml; DOX 1 μM+OEP inhibitor 87 μg/ml). […] Immediately after introducing aliquots of samples, the fluorescence polarization of DPHT was detected for 1 hour with an interval of 10 minutes.

For another assay, the system named is MCF-7/Vin cells. Described as above. Particulars: OEP inhibitor 8.7, 87, 870 μg/ml, doxorubicin 1 μM, cholesterol 100 μg/ml, Triton X-100 0.05%, 1 hour.
Source text: as §1, §2

For the next assay, the system named is P-gp (ABCB1). The assay can be described thus: Immunoblotting of P-gp (ABCB1) expression in MCF-7 cells. Particulars: 48 hours, doxorubicin 3 μM, OEP inhibitor 261 μg/ml, composition 3 μM: 261 μg/ml. The procedure:
MCF-7, MCF-7-ABCC1-DsRed (with over-expression of MRP-1), MCF-7-ABCC2-BFP (with over-expression of MRP-2), MCF-7-ABCB1-GFP (with P-gp over-expression) cells in concentrations of 3×10^4 cells/cm^2 were cultured in complete DMEM nutrient medium with either doxorubicin added to a final concentration of 3 μM; or an OEP inhibitor to a final concentration of 261 μg/ml; or doxorubicin-OEP inhibitor compositions to a final concentration of 3 μM: 261 μg/ml for 48 hours at 37° C. in the atmosphere of 5% CO2. An adapted and modified ABCAM protocol (http://www.abcam.com/ps/pdf/protocols/wb-beginner.pdf) was used to study proteins by immunoblotting (Western Blot). Monoclonal antibodies to ABCB1 (Cat. No. sc-13131, Santa Cruz) were used at a dilution of 1:200. Anti-mouse antibodies conjugated with HRP—(Cat. No ab6728, Abcam) at a dilution of 1:10,000 were used as secondary. Monoclonal antibodies to β-actin (Cat. No. mAbcam 8226, Abcam) were used at a dilution of 1:2000. The results of the analysis were visualized on ChemiDoc XRS+system (Bio-Rad).

With `CC(C)CCC[C@@H](C)[C@H]1CC[C@H]2[C@@H]3CC=C4C[C@@H](O)CC[C@]4(C)[C@H]3CC[C@]12C` [Cholesterol, cholesterol], the “polarization of the fluorescence of DPHT (membrane microviscosity)” value (“polarization of the fluorescence of DPHT” below) in the assay on MCF-7 cells and with MCF-7/Vin cells was “significantly increased” in each case.
Triton X-100: the “polarization of the fluorescence of DPHT” value with MCF-7 cells and with MCF-7/Vin cells was “significant decrease” throughout.
For the molecule `COc1cccc2c1C(=O)c1c(O)c3c(c(O)c1C2=O)C[C@@](O)(C(=O)CO)C[C@@H]3O[C@H]1C[C@H](N)[C@H](O)[C@H](C)O1` [doxorubicin, Doxorubicin (DOX) hydrochloride], the “polarization of the fluorescence of DPHT” value in the assay with MCF-7 cells and in the assay with MCF-7/Vin cells was “did not significantly change” throughout. For the same molecule, the “active glycosylated 190 kDa form of ABCB1, immunoblotting” value in the assay on P-gp (ABCB1) was “increases the amount of the active form”.
